Measurements reported in patent publication US20060078594A1, “Iron complex” (Conopco, Inc., d/b/a UNILEVER, priority 2004, published 2006).

Experiment: Iron dialysability assay (in vitro dialysable iron from fortified dough)
Conditions: dough from whole-grain wheat flour fortified with 50 mg/kg iron; normalized to dough fortified with ferrous sulfate; means of 4-5 experiments; ** = significantly different from ferrous sulfate (p < 0.05)
Method: The crude mass was aliquoted and small lumps were formed (10 g±0.5 g) which were used for the iron dialysability assay.
All glassware and paddles were cleaned with 10% HNO3 (24 hours) and rinsed five times with Milli-Q® water. […] The resulting suspension was poured into a VanKel Vial and the blender beaker was rinsed twice with Milli-Q® water (20 mL) and the rinse water was added to the suspension. The stirring speed of the paddle was adjusted to 200 rpm at 37° C. […] The pH of the suspension was adjusted to 2.0 with 6N HCl and a Pepsin-HCl solution (5 mL) was added. […] A clean dialysis membrane (20 cm, Spectra/Por7, Molecular weight cut-off 8 kD) was filled with a determined amount of 0.1M NaCO3 solution and adjusted to a total volume of 25 mL with Milli-Q® water. The dialysis bag was placed in the Erlenmeyer flask containing aliquot (iii), and shaken at 37° C. at 100 beats/min for 30 minutes while the pH was being monitored. […] After that time, the contents of the dialysis bag were recovered for quantitative analysis of the iron content.
Total iron content of yeast and wheat flour was determined by inductively coupled plasma atomic emission spectrometry. […] The emission of the individual elements was measured at specific wavelengths and concentrations were quantified from standard solutions. […]

Q: Which Relative availability does the source give for O=S(=O)([O-])[O-].[Fe+2] [Iron sulphate] here?
A: 1.0
